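Compound exposure: 48 hours, 5 concentrations, 96-well plates. GI50: concentration for 50% inhibition of growth.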 The source made the active and inactive calls. Cut-off read from the data, not from the text of the source: active = GI50 up to about 1.1 µM and inactive = higher.

The values below come from ChEMBL document CHEMBL1201862, “PubChem BioAssay data set” (2004).

Experiment in all cases: NCI tumour cell line growth inhibition, 48 h
For test [1], the system named is LXFL 529.
In test [2] the test system is SF-268.
Test [3] relates to HCT-15.
In test [4] the test system is SF-539.
Test [5] relates to RXF 393.
Test [6] concerns SF-295.
The subject of test [7] is UO-31.
Test [8] deals with OVCAR-8.
The subject of test [9] is KM12.
Test [10] has as its system OVCAR-5.
Test [11] deals with 786-0.
In test [12] the test system is SK-OV-3.
For test [13], the system named is HT-29.
For test [14], the system named is BT-549.
Test [15] relates to NCI/ADR-RES.
In test [16] the test system is HOP-62.
Test [17] deals with Hs-578T.
Test [18] concerns MDA-N.
Test [19] deals with DU-145.
Test [20] relates to A498.

As for `COc1cc(NS(C)(=O)=O)ccc1NCc1c2ccccc2nc2ccccc12`, the GI50 in test [1] is 29 µM (inactive); in test [2] it was 32.1 µM (inactive); in test [3], 21.7 µM; in [4], 24.3 µM (inactive); in test [5], 13.9 µM (inactive); in test [6], 64 µM (inactive). Besides, the GI50 in [7] was 19.1 µM (inactive); in [8] it was 30.9 µM (inactive); in test [9], 7.66 µM (inactive); in test [10], > 100 µM (inactive); in test [11], 40.6 µM (inactive); in test [12], > 100 µM (inactive). In addition, the GI50 in test [13] was 31.6 µM (inactive).

On to `Cc1nc2sc(C(=O)c3ccc(Cl)cc3)c(N)c2c(-c2ccccc2Cl)c1C(=O)Nc1ccccc1`, for which the GI50 was 20.2 µM (inactive) in test [14]; 19.3 µM (inactive) in [2]; 15.6 µM in test [3]; 14.7 µM (inactive) in [4]; 19.5 µM (inactive) in [15]; 14.7 µM (inactive) in [5]. In addition, the GI50 in [6] was 20.7 µM (inactive); in test [16], 15.8 µM (inactive); in test [7], 17.3 µM (inactive); in test [8], 13.4 µM (inactive); in test [17], 20.1 µM (inactive); in test [9] it was 18.5 µM (inactive). Also, the GI50 in [18] was 10.8 µM (inactive); in [19], 19.1 µM (inactive); in test [10] it was 16 µM (inactive); in test [11] it was 10 µM (inactive); in test [12], 14.4 µM (inactive); in [13] it was 12.2 µM (inactive). Also, the GI50 in test [20] is 21.3 µM (inactive).

Regarding `CCCN(CCCCC(NC(C)=O)C(=O)NCc1ccccc1)C(=O)NCCCl` (stereo unspecified), the GI50 in [1] is > 100 µM (inactive); in test [2] it was > 100 µM (inactive); in test [3], over 100 µM; in test [4] it was > 100 µM (inactive); in test [5], > 100 µM (inactive); in test [6] it was > 100 µM (inactive). The GI50 in [16], in test [7], in test [8], in [9], in test [11] and in test [13] was > 100 µM (inactive) in each case.

For `OCC(S)CS.[Bi]` (stereo unspecified), the GI50 in test [14] is 9.79 µM (inactive); in [2], 5.43 µM (inactive); in test [3], 15 µM; in [4] it was 15.4 µM (inactive); in [15], 36.1 µM (inactive); in [5], 10.7 µM (inactive). In addition, the GI50 was 48.2 µM (inactive) in test [6]; 19.1 µM (inactive) in [16]; 16.7 µM (inactive) in [7]; 19.5 µM (inactive) in test [8]; 15.9 µM (inactive) in test [17]; 19.1 µM (inactive) in test [9]. For the same compound, the GI50 was 14.1 µM (inactive) in test [18]; 18.3 µM (inactive) in test [19]; 19.9 µM (inactive) in test [10]; 11.2 µM (inactive) in test [11]; 31.6 µM (inactive) in test [12]; 19 µM (inactive) in test [13]. Besides, the GI50 in [20] was 27 µM (inactive).

Regarding `c1ccc2c(c1)c1c(c3ccccc32)CN2CCCC2C1` (stereo unspecified), the GI50 in test [14] was 5.05 µM (inactive); in test [2], 2.92 µM (inactive); in test [3] it was 4.09 µM; in [4], 2.9 µM (inactive); in test [15], 3.94 µM (inactive); in test [5] it was 2.34 µM (inactive). Further, the GI50 in test [6] was 3.09 µM (inactive); in [16], 2.79 µM (inactive); in [7], 2.77 µM (inactive); in test [8] it was 3.17 µM (inactive); in test [17], 2.38 µM (inactive); in [9] it was 4.2 µM (inactive). Also, the GI50 in test [18] was 2.82 µM (inactive); in test [19], 4.17 µM (inactive); in test [10], 3.94 µM (inactive); in test [11], 3.94 µM (inactive); in test [12], 7.52 µM (inactive); in test [13] it was 3.72 µM (inactive). In test [20], the GI50 is 3.72 µM (inactive).

With `N/C(=N\c1ccc(Cl)cc1)NS(=O)(=O)c1cccc2nsnc12`, the GI50 in [14] is 25.2 µM (inactive); in [2], 26.8 µM (inactive); in [3], 30.3 µM; in test [4] it was 37.3 µM (inactive); in test [15], 31.3 µM (inactive); in test [5], > 100 µM (inactive). In addition, the GI50 in test [6] is 45.5 µM (inactive); in test [16] it was 94.2 µM (inactive); in test [7], 28.4 µM (inactive); in test [8], 27.6 µM (inactive); in [17], 20.9 µM (inactive); in test [9], 34.3 µM (inactive). For the same compound, the GI50 in test [18] is 23.7 µM (inactive); in test [19], 82.2 µM (inactive); in test [10], 55.7 µM (inactive); in test [11], 24.7 µM (inactive); in test [12], 74.8 µM (inactive); in [13], 55.6 µM (inactive). Also, the GI50 in test [20] was 15.6 µM (inactive).

Take `O=[N+]([O-])C(C(Cl)=C(Cl)Cl)=C(N(Cc1ccccc1)Cc1ccccc1)N(Cc1ccccc1)Cc1ccccc1`: the GI50 in test [14] was > 100 µM (inactive); in test [2], > 100 µM (inactive); in test [3] it was over 100 µM; in test [4], 30.3 µM (inactive); in test [15] it was > 100 µM (inactive); in test [5], 92.9 µM (inactive). Further, the GI50 in test [6] is 27.9 µM (inactive); in test [16] it was 43.7 µM (inactive); in test [7] it was 45.8 µM (inactive); in test [8], > 100 µM (inactive); in test [17], > 100 µM (inactive); in test [9], > 100 µM (inactive). Further, the GI50 is 45.3 µM (inactive) in [18]; > 100 µM (inactive) in test [19]; 30.2 µM (inactive) in [10]; 48.8 µM (inactive) in test [11]; 38.1 µM (inactive) in test [12]; 33 µM (inactive) in test [13]. Also, the GI50 in test [20] was 30.5 µM (inactive).

Regarding `Nc1ccc(Oc2ccc(C34CC5CC6C3CC3CC4C(C5)C6(c4ccc(Oc5ccc(N)c(O)c5)cc4)C3)cc2)cc1O`, the GI50 in test [14] is 1.15 µM (inactive); in test [2] it was 3.33 µM (inactive); in test [3], 3.44 µM; in test [4], 0.0255 µM (active); in test [15] it was 3.1 µM (inactive); in test [5], 4.13 µM (inactive). Further, the GI50 in test [6] was 3.58 µM (inactive); in test [16] it was 4.78 µM (inactive); in test [7], 2.42 µM (inactive); in [8], 0.67 µM (active); in test [17], 17.2 µM (inactive); in test [9], 3.69 µM (inactive). Besides, the GI50 in [18] is 3.22 µM (inactive); in test [19] it was 4.73 µM (inactive); in [10], 2 µM (inactive); in test [11], 3.15 µM (inactive); in test [12], 10.1 µM (inactive); in test [13], 3.59 µM (inactive). Further, the GI50 in test [20] was 7.36 µM (inactive).

Take `CCCCCCc1cc2cc(C(=O)Nc3ccccc3)c(=N)oc2cc1O`: the GI50 in [14] was 9.25 µM (inactive); in test [2], 4.85 µM (inactive); in [3], 3.45 µM; in test [4], 4.49 µM (inactive); in test [15], 3.27 µM (inactive); in test [5], 5.56 µM (inactive). Besides, the GI50 in test [6] was 3.05 µM (inactive); in [16], 2.76 µM (inactive); in test [7], 2.82 µM (inactive); in test [8] it was 3.93 µM (inactive); in test [17], 3.21 µM (inactive); in test [9], 2.51 µM (inactive). Moreover, the GI50 in [18] was 3.88 µM (inactive); in test [19], 4.82 µM (inactive); in [10], > 83.6 µM (inactive); in [11], 3.21 µM (inactive); in test [12] it was 3.34 µM (inactive); in [13], 3.28 µM (inactive). Further, the GI50 in test [20] is 26.2 µM (inactive).

On to `O=c1c2cc([N+](=O)[O-])ccc2n(Cc2ccccc2)n1Cc1ccccc1`, for which the GI50 in test [14] is 15.3 µM (inactive); in [2], 24.4 µM (inactive); in test [3], 20.1 µM; in test [4] it was 19.2 µM (inactive); in [15] it was 11.2 µM (inactive); in test [5], 24.9 µM (inactive). Further, the GI50 in test [6] was 15.1 µM (inactive); in test [16], > 31.6 µM (inactive); in test [7], 12.4 µM (inactive); in [8], 11.9 µM (inactive); in test [17] it was 16.3 µM (inactive); in test [9], 10.5 µM (inactive). Further, the GI50 was 12.2 µM (inactive) in [18]; 17.3 µM (inactive) in test [19]; > 31.6 µM (inactive) in test [10]; 21.7 µM (inactive) in test [11]; > 10 µM (inactive) in [12]; 15.9 µM (inactive) in test [13]. Further, the GI50 in test [20] is 15.9 µM (inactive).

In the case of `CC1(C)C2CC1C(/C=N\OCC(=O)O)=CC2=O` (stereo unspecified), the GI50 is > 100 µM (inactive) in [14]; > 100 µM (inactive) in [2]; over 100 µM in [3]; > 100 µM (inactive) in test [4]; > 100 µM (inactive) in test [15]; > 100 µM (inactive) in test [5]. Further, the GI50 in [6], in test [16], in test [7], in [8], in [17] and in test [9] was > 100 µM (inactive) throughout. Moreover, the GI50 in [18], in test [19], in [10], in test [11], in test [12] and in test [13] was > 100 µM (inactive) throughout. In addition, the GI50 in test [20] is > 100 µM (inactive).
